Experimental data taken from patent US9029356B2, “Substituted indazole derivatives active as kinase inhibitors” (Nerviano Medical Services S.R.L., priority 2007, dated 2015).

Columns and labels:
[1] = target: ALK (Homo sapiens (Human), UniProt Q9UM73); test: Biochemical assay for inhibitors of ALK kinase activity; conditions: 20 nM enzyme, 8 microM ATP, 2 microM MBP
From the text: Preparation of ALK Cytoplasmic Domain for Use in Biochemical Assay
For cloning purposes, the oligonucleotides included attB sites in order to obtain an attB-flanked PCR product suitable for cloning using the Gateway technology (Invitrogen). Furthermore, for purification purposes, forward primer included a PreScission cleavage site (Amersham Biosciences). The resulting PCR product was cloned in the baculovirus expression vector pVL1393 (Invitrogen) Gateway-modified. For expression and purification purpose, a GST tag was added N-terminal to the ALK cytoplasmic domain. Cloning was performed according to the protocols described in the Gateway manual (Invitrogen).
Affinity purified GST-ALK was loaded on a Heparin Sepharose™ FF (Amersham Biosciences) column and eluted with 50 mM NaCl, 25 mM TRIS pH 7.5, 2 mM DTT, 20% glycerol.
Biochemical Assay for Inhibitors of ALK Kinase Activity

[2] = target: IGF-1R (Homo sapiens (Human), UniProt P08069); test: Biochemical assay for inhibitors of IGF-1R kinase activity; conditions: 6 nM enzyme, 6 microM ATP, 10 microM peptide substrate
Sequence of IGF-1R (P08069 960-1367): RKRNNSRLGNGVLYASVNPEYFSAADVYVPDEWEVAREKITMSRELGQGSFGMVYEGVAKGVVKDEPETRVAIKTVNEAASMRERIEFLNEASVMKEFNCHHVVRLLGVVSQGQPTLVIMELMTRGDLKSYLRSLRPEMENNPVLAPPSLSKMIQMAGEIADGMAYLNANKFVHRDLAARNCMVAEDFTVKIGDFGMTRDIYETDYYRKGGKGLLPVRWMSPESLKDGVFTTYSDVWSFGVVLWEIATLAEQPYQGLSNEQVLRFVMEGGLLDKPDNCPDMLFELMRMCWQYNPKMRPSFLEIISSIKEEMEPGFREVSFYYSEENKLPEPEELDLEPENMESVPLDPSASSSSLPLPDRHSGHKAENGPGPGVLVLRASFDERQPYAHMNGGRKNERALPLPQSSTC
Protocol: Biochemical Assay for Inhibitors of IGF-1 R Kinase Activity The inhibitory activity of putative kinase inhibitors and the potency of selected compounds were determined using a trans-phosphorylation assay. A specific substrate was incubated with the kinase in appropriate buffer conditions in the presence of ATP traced with ^33P-γ-ATP (gamma phosphate-labeled, RedivueTM Code Number AH9968, 1000-3000 Ci/mmole, Amersham Biosciences Piscataway, N.J., USA), optimal cofactors and test compound. At the end of the phosphorylation reaction, more than 98% cold and radioactive ATP were captured by an excess of Dowex ion exchange resin. The resin was allowed to settle to the bottom of reaction wells by gravity. Supernatant, containing substrate peptide, was subsequently withdrawn and transferred into a counting plate, and radioactivity (corresponding to phosphate incorporated into peptide) was evaluated by β-counting. […] Prior to starting the kinase inhibition assay, IGF-1R was pre-phosphorylated in order to linearize reaction kinetics. […] The peptide was obtained in batches of >95% peptide purity from American Peptide Company, Inc. (Sunnyvale, Calif., USA). […] Compounds showing desired inhibition were further analysed in order to study the potency of the inhibitor through IC50 calculation. […]

Sequence of ALK (Q9UM73 1060-1620): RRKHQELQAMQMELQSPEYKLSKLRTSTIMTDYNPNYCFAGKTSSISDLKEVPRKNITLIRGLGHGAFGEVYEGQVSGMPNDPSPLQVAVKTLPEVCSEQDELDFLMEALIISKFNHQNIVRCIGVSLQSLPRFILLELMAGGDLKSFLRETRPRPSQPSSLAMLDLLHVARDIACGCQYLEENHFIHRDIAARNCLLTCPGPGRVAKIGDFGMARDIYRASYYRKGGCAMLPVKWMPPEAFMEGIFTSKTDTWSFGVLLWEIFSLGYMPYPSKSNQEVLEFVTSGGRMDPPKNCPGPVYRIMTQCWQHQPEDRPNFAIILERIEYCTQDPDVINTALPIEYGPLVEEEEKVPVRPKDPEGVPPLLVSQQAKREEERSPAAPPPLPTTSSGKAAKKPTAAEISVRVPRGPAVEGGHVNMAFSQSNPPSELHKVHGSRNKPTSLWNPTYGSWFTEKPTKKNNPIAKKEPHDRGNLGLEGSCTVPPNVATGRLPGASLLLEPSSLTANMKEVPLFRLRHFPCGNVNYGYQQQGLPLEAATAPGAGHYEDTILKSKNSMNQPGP

IC50 [1] [µM] | IC50 [2] [µM] | SMILES
0.207 | – | CN1CCN(c2ccc(C(=O)Nc3n[nH]c4ccc(Cc5cc(F)cc(F)c5)cc34)cc2)CC1 [Cpd 4, N-[5-(3,5-Difluoro-benzyl)-1H-indazol-3-yl]-4-(4-methyl-piperazin-1-yl)-benzamide]
0.411 | – | COCCNc1cc(N2CCN(C)CC2)ccc1C(=O)Nc1n[nH]c2ccc(Cc3cc(F)cc(F)c3)cc12 [Cpd 26, N-[5-(3,5-Difluoro-benzyl)-1H-indazol-3-yl]-2-(2-methoxy-ethylamino)-4-(4-methyl-piperazin-1-yl)-benzamide]
1.77 | 6.07 | CN1CCN(c2ccc(C(=O)Nc3n[nH]c4ccc(Cc5cc(F)cc(F)c5)cc34)c(NC3CCCCC3)c2)CC1 [Cpd 18, 2-Cyclohexylamino-N-[5-(3,5-difluoro-benzyl)-1H-indazol-3-yl]-4-(4-methyl-piperazin-1-yl)-benzamide]
